Test results as given in the CheMixHub ionic liquid set.
Values joined by “and” are separate entries in the source; they are usually repeats but may differ in a detail not shown here. Equal entries are not always repeated. ± gives the uncertainty stated by the source.

Assay: xn = mol fraction of the nth substance listed

O=C(O)CCl + CCCC[N+](CCCC)(CCCC)CCCC.O=S(=O)([O-])O
100 kPa
Details	electrical conductivity, 303.15 K [S/m]	electrical conductivity, 308.15 K [S/m]	electrical conductivity, 313.15 K [S/m]	electrical conductivity, 333.15 K [S/m]	viscosity, 313.15 K [mPa·s]	viscosity, 333.15 K [mPa·s]
x2 = 0.333	0.027 ± 0.0011	0.0376 ± 0.0011	–	–	–	–
x2 = 0.5	–	–	0.01 ± 0.001	0.0382 ± 0.001	1123 ± 61	294.2 ± 9.9

CCOS(=O)(=O)[O-].CC[n+]1ccn(C)c1 + OCCO
100 kPa
Details	electrical conductivity	viscosity
293.15 K, x1 = 0.2999	–	20.52 ± 0.2 mPa·s
293.15 K, x2 = 0.406	–	41.6 ± 0.9 mPa·s
298.15 K, x1 = 0.001	0.0067 S/m and 0.0121 S/m	16 ± 0.3 mPa·s and 16.9 ± 0.4 mPa·s
298.15 K, x2 = 0	–	95.9 ± 2.1 mPa·s
298.15 K, x2 = 0.597	0.95 ± 0.04 S/m	21.7 ± 0.5 mPa·s
298.15 K, x2 = 0.851	0.72 ± 0.03 S/m	14.8 ± 0.3 mPa·s
303.15 K, x1 = 0.001	–	13.8 ± 0.3 mPa·s
303.15 K, x1 = 0.5992	–	28.04 ± 0.46 mPa·s
303.15 K, x1 = 0.6994	–	37.14 ± 0.69 mPa·s
303.15 K, x2 = 0.792	–	13 ± 0.3 mPa·s
308.15 K, x1 = 0.1982	–	10.85 ± 0.08 mPa·s
308.15 K, x1 = 0.2999	–	12.62 ± 0.12 mPa·s
313.15 K, x1 = 0.001	0.0115 S/m and 0.0206 S/m	9.15 ± 0.19 mPa·s and 9.54 ± 0.2 mPa·s
313.15 K, x1 = 0.003	0.0362 ± 0.0015 S/m	9.48 ± 0.2 mPa·s
313.15 K, x1 = 0.008	0.097 ± 0.004 S/m	9.49 ± 0.2 mPa·s
313.15 K, x1 = 0.1982	–	9.37 ± 0.07 mPa·s
313.15 K, x2 = 0.406	1.27 ± 0.05 S/m	20.6 ± 0.5 mPa·s
313.15 K, x2 = 0.938	0.59 ± 0.02 S/m	9.05 ± 0.19 mPa·s
318.15 K, x1 = 0.1982	–	8.15 ± 0.06 mPa·s
318.15 K, x1 = 0.4002	–	11.61 ± 0.14 mPa·s
318.15 K, x1 = 0.8001	–	27.31 ± 0.57 mPa·s
318.15 K, x1 = 0.8993	–	35.33 ± 0.81 mPa·s
323.15 K, x1 = 0.1003	–	6.66 ± 0.04 mPa·s
333.15 K, x1 = 0.1003	–	5.1 ± 0.03 mPa·s
333.15 K, x1 = 0.1982	–	5.59 ± 0.04 mPa·s
333.15 K, x1 = 0.5005	–	9.85 ± 0.14 mPa·s
338.15 K, x1 = 0.5992	–	10.45 ± 0.17 mPa·s
343.15 K, x1 = 0.5005	–	7.87 ± 0.11 mPa·s
343.15 K, x1 = 0.5992	–	9.34 ± 0.15 mPa·s
343.15 K, x1 = 0.8001	–	13.58 ± 0.28 mPa·s

CCCC[n+]1ccn(C)c1.O=[N+]([O-])[O-] + CCCO
101 kPa
Details	viscosity [mPa·s]
288.15 K, x2 = 0.121	176 ± 10
288.15 K, x2 = 0.471	34.53 ± 0.51
293.15 K, x2 = 0.673	11.32 ± 0.15
298.15 K, x2 = 0.673	9.79 ± 0.12
308.15 K, x2 = 0.471	16.82 ± 0.23
313.15 K, x2 = 0.364	21.01 ± 0.3
318.15 K, x2 = 0.471	12.54 ± 0.17
318.15 K, x2 = 0.554	9.21 ± 0.12
323.15 K, x2 = 0.121	31.91 ± 0.49
323.15 K, x2 = 0.471	10.97 ± 0.14
328.15 K, x2 = 0.471	9.68 ± 0.13
328.15 K, x2 = 0.755	3.24 ± 0.04
328.15 K, x2 = 0.857	2.14 ± 0.02
333.15 K, x2 = 0.554	6.37 ± 0.08

CCOS(=O)(=O)[O-].CC[n+]1ccn(C)c1 + O=C([O-])c1ccccc1.[Na+] + O
viscosity [mPa·s], 101.3 kPa
Details	293.15 K	298.15 K	303.15 K	308.15 K	313.15 K
x2 = 0, x1 = 0.001795	1.073 ± 0.071	0.96 ± 0.071	0.845 ± 0.071	0.751 ± 0.071	0.679 ± 0.071
x2 = 0, x1 = 0.002698	1.107 ± 0.071	0.987 ± 0.071	0.876 ± 0.071	0.788 ± 0.071	0.709 ± 0.071
x2 = 0, x1 = 0.003589	1.136 ± 0.071	1.016 ± 0.071	0.899 ± 0.071	0.811 ± 0.071	0.727 ± 0.071

CCOS(=O)(=O)[O-].CC[n+]1ccn(C)c1 + CCO + CCOC(C)(C)C
298.15 K, 101 kPa
Details	viscosity [mPa·s]
x2 = 0, x3 = 0	100.4 ± 5.5
x2 = 0.1271, x3 = 0	65.5 ± 2
x2 = 0.1281, x3 = 0	66.1 ± 2
x2 = 0.2039, x3 = 0	49.8 ± 1.4
x2 = 0.2187, x3 = 0	47.7 ± 1.3
x2 = 0.3088, x3 = 0	34.69 ± 0.88
x2 = 0.3256, x3 = 0	32.21 ± 0.81
x2 = 0.3598, x3 = 0	28.75 ± 0.71
x2 = 0.4147, x3 = 0	22.88 ± 0.55
x2 = 0.4336, x3 = 0	21.39 ± 0.5
x2 = 0.4604, x3 = 0	18.98 ± 0.44
x2 = 0.5103, x3 = 0	15.4 ± 0.35
x2 = 0.5223, x3 = 0	14.78 ± 0.34
x2 = 0.5724, x3 = 0	11.74 ± 0.26
x2 = 0.5926, x3 = 0	10.83 ± 0.24
x2 = 0.5951, x3 = 0	10.65 ± 0.24
x2 = 0.712, x3 = 0	6.13 ± 0.14
x2 = 0.7174, x3 = 0	5.98 ± 0.14
x2 = 0.7508, x3 = 0	5.08 ± 0.12
x2 = 0.7676, x3 = 0	4.68 ± 0.11
x2 = 0.7866, x3 = 0	4.31 ± 0.1
x2 = 0.806, x3 = 0	3.86 ± 0.089
x2 = 0.8666, x3 = 0	2.709 ± 0.063
x2 = 0.9026, x3 = 0	2.189 ± 0.051
x2 = 0.9062, x3 = 0	2.138 ± 0.05
x2 = 0.9504, x3 = 0	1.628 ± 0.039
x2 = 0.9522, x3 = 0	1.589 ± 0.038

CCOS(=O)(=O)[O-].CC[n+]1ccn(C)c1 + OCC(O)CO
100 kPa
Details	electrical conductivity [S/m]	viscosity [mPa·s]
298.15 K, x1 = 0.002	0.000368 ± 1.5e-05	–
298.15 K, x1 = 0.004	0.00065 ± 3e-05	–
298.15 K, x1 = 0.012	0.00204 ± 9e-05	–
298.15 K, x2 = 0.123	0.396 ± 0.016	89.1 ± 2
298.15 K, x2 = 0.601	0.248 ± 0.01	91.5 ± 2.2
298.15 K, x2 = 0.98	0.00333 ± 0.00014	–
303.15 K, x2 = 0.264	–	65 ± 1.4
303.15 K, x2 = 0.5	–	63.7 ± 1.4
303.15 K, x2 = 0.98	–	494 ± 18
313.15 K, x1 = 0.002	0.00114 ± 5e-05	279.6 ± 8.8
313.15 K, x1 = 0.004	0.002 ± 8e-05	274.6 ± 8.6
313.15 K, x2 = 0.958	0.0222 ± 0.0009	199 ± 5.7

CC(=O)[O-].Cn1cc[nH+]c1 + COS(=O)(=O)[O-].Cn1cc[n+](C)c1
298.15 K, 100 kPa
Details	viscosity [mPa·s]
x1 = 0.1	90.2 ± 2.3
x1 = 0.19	77.2 ± 1.8
x1 = 0.31	56.3 ± 1.3
x1 = 0.4	40.7 ± 0.9
x1 = 0.5	35.3 ± 0.8
x1 = 0.59	27.7 ± 0.6

CCOS(=O)(=O)[O-].CC[n+]1ccn(C)c1 + CC(=O)c1ccccc1
100 kPa, x2 = 0
Details	viscosity [mPa·s]
313.15 K	40 ± 12
333.15 K	20.4 ± 6.1

CC[NH+](CC)CC.O=P([O-])(O)O + CS(C)=O
viscosity [mPa·s], 101 kPa
Details	298.15 K	303.15 K	308.15 K
x2 = 0	64.3 ± 1.3	57.1 ± 1.2	49.5 ± 1
x2 = 0.0242	61.3 ± 1.3	54.6 ± 1.1	47.55 ± 0.98
x2 = 0.0507	58.2 ± 1.2	51.7 ± 1.1	45.51 ± 0.94
x2 = 0.1295	49.7 ± 1	44.43 ± 0.92	39.41 ± 0.81
x2 = 0.1963	43.47 ± 0.9	38.82 ± 0.8	34.74 ± 0.72
x2 = 0.2596	37.82 ± 0.78	34.13 ± 0.7	30.67 ± 0.63
x2 = 0.3272	32.61 ± 0.67	29.61 ± 0.61	26.81 ± 0.55
x2 = 0.3878	28.47 ± 0.59	26.13 ± 0.54	23.64 ± 0.49
x2 = 0.4494	24.64 ± 0.51	22.94 ± 0.47	20.75 ± 0.43
x2 = 0.5141	21.1 ± 0.44	19.68 ± 0.41	17.92 ± 0.37
x2 = 0.5888	17.29 ± 0.36	16.43 ± 0.34	14.93 ± 0.31
x2 = 0.6387	15 ± 0.31	14.42 ± 0.3	13.14 ± 0.27
x2 = 0.7055	12.26 ± 0.25	11.95 ± 0.25	10.82 ± 0.22
x2 = 0.7616	10.18 ± 0.21	9.98 ± 0.21	9.01 ± 0.19
x2 = 0.8342	7.58 ± 0.16	7.36 ± 0.15	6.75 ± 0.14
x2 = 0.8828	5.7 ± 0.12	5.6 ± 0.12	5.23 ± 0.11
x2 = 0.9272	4.37 ± 0.09	4.24 ± 0.09	3.84 ± 0.08
x2 = 0.9543	3.31 ± 0.07	3.2 ± 0.07	2.98 ± 0.06
x2 = 0.9772	2.7 ± 0.06	2.56 ± 0.05	2.33 ± 0.05
